Data reported in patent US20240058456A1, “MOLECULES WITH SOLUBILITY TAG AND RELATED METHODS” (Merck Patent GmbH, priority 2020, published 2024).

Experiment: Solubility and aggregation during conjugation
Type: physicochemical
Conditions: conjugation media
Method: To this end, 1 eq antibody in a buffer with 150 mM NaCl, 25 mM Tris (pH 8.0) was mixed with a solution of the respective payload (10× or 20× surplus to the concentration of the antibody, depending on the number of linkage sites) and 6 U/ml of transglutaminase. The mixture was incubated for 16 h in a thermomixer at 37° C. and 450 rpm.
For linkage by maleimide chemistry, a 5 mg/mL solution of the respective antibody component in PBS (pH 7.4) was prepared (˜33 μM antibody). The antibody was reduced with TCEP ((tris(2-carboxyethyl)phosphine); ratio of antibody component to TCEP 1:2 to 1:6, depending on the desired DAR; TCEP was used as 2 mM stock, pH 7.0) or in some cases with DTT (dithiothreitol; 20 mM). After incubation for 0.5-2 hours (depending on the number of cysteines to be activated) in a 37° C. water bath, the reaction was allowed to cool down to room temperature.
The solution was desalted to conjugation buffer (10 mM sodium phosphate, pH 6.0, 2 mM EDTA, N2 degassed) on a Sephadex G25 column and adjusted to an antibody concentration of 0.2 mg/mL in conjugation buffer.
Conjugation was initiated by adding the reduced antibody to a solution of the appropriate maleimide-activated linker-payload construct at a suitable ratio (e.g. 1:4 to 1:8 ratio antibody to linker-payload construct for DAR 4; e.g. 1:20 ratio antibody to linker-payload construct for DAR 8). […]

Compound: Cc1cccc2c(OC(=O)N(CCC(=O)NCCOS(=O)(=O)O)CCN(C)C(=O)OCc3ccc(NC(=O)[C@H](CCCNC(N)=O)NC(=O)[C@@H](NC(=O)CNC(=O)CNC(=O)CN)C(C)C)cc3)cc3c(c12)[C@H](CCl)CN3C(=O)c1cn2cc(NC(=O)c3cc4ccccc4o3)ccc2n1 [Compound 5]
- solubility of the linker-payload construct under coupling conditions: insufficient
